Where a name gives a salt, the structure may show the parent alone.
Tests used:
[1] = molecular target: T1, Dopamine D2 receptor (Homo sapiens, UniProt P14416); assay: Dopamine D2 receptor binding assay ([125I]iodospiperone); settings: [125I]iodospiperone 0.1 nM, D2 receptor membranes, 2 hours at room temperature; read-out: Relative D2 Receptor Binding Affinity Ki
T1 construct: purchased Receptor Biology (now owned by NEN) RBHD2CM
Experimental: Serotonin 5-HT6 and Dopamine D2 Binding Assay Protocol
The assay buffers used are 50 mM Tris-HCl pH 7.4, 120 mM NaCl, 5 mM KCl, 5 mM MgCl2, 1 mM EDTA for the Dopamine D2s receptor binding assay. […] The membranes used are from Receptor Biology (now owned by NEN), Cat #RBHD2CM for the D2 receptor.
Compounds are obtained as 10 mM stocks in 100% DMSO. They are diluted to 1 mM in 100% DMSO by adding 180 μL DMSO to 20 μL of stock in 96 well plates using a multidrop. […] This is done using a TECAN robot.
The radioligand is diluted in assay buffer to provide 0.1 nM for the D2 assay. Each vial of membranes is diluted up to 92 mL in assay buffer. The final assay volume is 250 μL consisting of 210 μl of diluted membranes, 20 μL of compound or 10% DMSO for total binding, and 20 μL of diluted radioligand. The compounds are transferred from drug dilution plates into coming 96 well assay plates using a 96 well Multimek pipettor. Radioligand and membranes are added to assay plates using multidrop pipettors. Non-specific binding is determined in wells containing a final concentration of 5 μM haloperidol. The final drug concentration range in half logs is from 10 μM down to 0.1 nM.
After addition of drug, membrane, and ligand, the plates are incubated for 2 hours at room temperature. During this time 96 well Millipore filter plates (MAFBNOB50) are soaked for a least 30 minutes with 200 μL per well of 0.5% polyethyleneimine.
The 0.5% PEI is removed from filterplate wells using a TiterTek MAP aspirator and 200 μL of the incubation mixture is transferred from the incubation plate to the filterplate after mixing. This transfer is done using the 96 tip Mutimek pipettor. After transfer to the filterplate filterplates are extracted and ished twice with 220 μL per well of cold buffer on the MAP aspirator. The peel away bottoms are removed from the filterplates and 60 μL per well of microscint 20 scintillation fluid is added per well using a multidrop. Plates are placed into suitable holders and are left at room temperature for 3 hours and are counted for ^3H in either a Wallac Microbeta counter or on a Packard Topcount.

T1 sequence (P14416 1-414 isoform P14416-2): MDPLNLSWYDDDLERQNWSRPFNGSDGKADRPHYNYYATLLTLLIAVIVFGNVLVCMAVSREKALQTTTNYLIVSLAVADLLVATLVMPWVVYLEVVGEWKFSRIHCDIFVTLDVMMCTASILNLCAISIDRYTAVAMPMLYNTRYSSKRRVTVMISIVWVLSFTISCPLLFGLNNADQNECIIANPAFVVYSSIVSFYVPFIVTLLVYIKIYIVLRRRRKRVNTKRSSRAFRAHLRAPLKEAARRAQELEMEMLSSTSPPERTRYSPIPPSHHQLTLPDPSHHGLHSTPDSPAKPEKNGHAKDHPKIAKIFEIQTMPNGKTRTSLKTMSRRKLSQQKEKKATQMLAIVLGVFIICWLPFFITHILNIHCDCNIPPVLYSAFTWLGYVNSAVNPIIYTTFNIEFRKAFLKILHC

Cc1cc2c(s1)Nc1ccccc1N=C2N1CCN[C@@H](CCc2ccccc2)C1 [Example 59, 2-Methyl-10-(S)-(3-phenethyl-piperazin-1-yl)-4H-3-thia-4,9-diazabenzo[f]azulene]
Ki [1]: 10 to 100 nM | melting point: 75 to 84 °C

Cc1cc2c(s1)Nc1ccccc1N=C2N1CCN[C@@H](Cc2ccccc2)C1 [Example 61]
Ki [1]: < 10 nM | melting point: 169 to 170 °C

Cc1ccc(C[C@H]2CN(C3=Nc4ccccc4Nc4sc(C)cc43)CCN2)cc1 [Example 69]
Ki [1]: 10 to 100 nM | melting point: 92 to 101 °C

Cc1cccc(C[C@H]2CN(C3=Nc4ccccc4Nc4sc(C)cc43)CCN2)c1 [Example 70]
Ki [1]: < 10 nM | melting point: 80 to 97 °C

Cc1cc2c(s1)Nc1ccccc1N=C2N1CCN[C@@H](Cc2ccccc2F)C1 [Example 71]
Ki [1]: < 10 nM | melting point: 84 to 102 °C

Cc1cc2c(s1)Nc1ccccc1N=C2N1CCN[C@@H](Cc2cccc(F)c2)C1 [Example 72]
Ki [1]: 10 to 100 nM | melting point: 87 to 99 °C

COc1ccccc1C[C@H]1CN(C2=Nc3ccccc3Nc3sc(C)cc32)CCN1 [Example 75]
Ki [1]: < 10 nM | melting point: 95 to 109 °C

COc1cccc(C[C@H]2CN(C3=Nc4ccccc4Nc4sc(C)cc43)CCN2)c1 [Example 76]
Ki [1]: < 10 nM | melting point: 96 to 109 °C

COc1ccc(C[C@H]2CN(C3=Nc4ccccc4Nc4sc(C)cc43)CCN2)cc1 [Example 77]
Ki [1]: 10 to 100 nM | melting point: 85 to 98 °C

Cc1cc2c(s1)Nc1ccccc1N=C2N1CCN[C@@H](Cc2cccs2)C1 [Example 80]
Ki [1]: < 10 nM | melting point: 95 to 104 °C

Cc1cc2c(s1)Nc1ccccc1N=C2N1CCN[C@@H](Cc2ccc(Cl)cc2)C1 [Example 85]
Ki [1]: < 10 nM | melting point: 91 to 108 °C

Cc1cc2c(s1)Nc1ccccc1N=C2N1CCN(C)[C@@H](CCc2ccccc2)C1 [Example 90, 2-Methyl-10-(4-methyl-3-(S)-phenethyl-piperazin-1-yl)-4H-3-thia-4,9-diaza-benzo[f]azulene]
Ki [1]: 10 to 100 nM | melting point: 87 to 91 °C

Cc1cc2c(s1)Nc1ccccc1N=C2N1CCN(C)[C@@H](Cc2ccccc2)C1 [Example 92]
Ki [1]: 10 to 100 nM | melting point: 94 to 97 °C

Cc1cccc(C[C@H]2CN(C3=Nc4ccccc4Nc4sc(C)cc43)CCN2C)c1 [Example 103]
Ki [1]: 10 to 100 nM | melting point: 67 to 83 °C

COc1ccccc1C[C@H]1CN(C2=Nc3ccccc3Nc3sc(C)cc32)CCN1C [Example 109]
Ki [1]: < 10 nM | melting point: 81 to 93 °C

COc1ccc(CC[C@H]2CN(C3=Nc4ccccc4Nc4sc(C)cc43)CCN2C)cc1 [Example 185, 10-((S)-3-(2-(4-Methoxy-phenyl)-ethyl)-4-methyl-piperazin-1-yl)-2-methyl-4H-3-thia-4,9-diaza-benzo[f]azulene dihydrochloride]
Ki [1]: 10 to 100 nM

COc1cccc(CC[C@H]2CN(C3=Nc4ccccc4Nc4sc(C)cc43)CCN2C)c1 [Example 186, 10-((S)-3-(2-(3-Methoxy-phenyl)-ethyl)-4-methyl-piperazin-1-yl)-2-methyl-4H-3-thia-4.9-diaza-benzo[f]azulene dihydrochloride]
Ki [1]: < 10 nM

COc1ccccc1CC[C@H]1CN(C2=Nc3ccccc3Nc3sc(C)cc32)CCN1C [Example 187, 10-((S)-3-(2-(2-Methoxy-phenyl)-ethyl)-4-methyl-piperazin-1-yl)-2-methyl-4H-3-thia-4,9-diaza-benzo[f]azulene dihydrochloride]
Ki [1]: 10 to 100 nM

Cc1cc2c(s1)Nc1ccccc1N=C2N1CCN[C@@H](CCCCc2ccccc2)C1 [Example 194]
Ki [1]: < 10 nM

Cc1cc2c(s1)Nc1ccccc1N=C2N1CCN(C)[C@@H](CCCCc2ccccc2)C1 [Example 195, (S)-2-Methyl-10-(3-(4-phenyl-butyl)-4-methyl-piperazin-1-yl)-4H-3-thia-4,9-diaza-benzo[f]azulene, dihydrochloric acid]
Ki [1]: 10 to 100 nM

Cc1cc2c(s1)Nc1ccccc1N=C2N1CCN[C@@H](Cc2ccsc2)C1 [Example 212]
Ki [1]: < 10 nM | melting point: 82 to 94 °C

Cc1cc2c(s1)Nc1ccccc1N=C2N1CCN(C)[C@@H](Cc2ccsc2)C1 [Example 219]
Ki [1]: 10 to 100 nM | melting point: 58 to 72 °C

Cc1nc2c(s1)Nc1ccccc1N=C2N1CCN[C@@H](CCc2ccccc2)C1 [Example 460, (S)-2-Methyl-10-(3-phenethyl-piperazin-1-yl)-4H-3-thia-1,4,9-triaza-benzo[f]azulene dihydrochloride hemihydrate]
Ki [1]: < 10 nM

Cc1nc2c(s1)Nc1ccccc1N=C2N1CCN(C)[C@@H](CCc2ccccc2)C1 [Example 461, (S)-2-Methyl-10-(4-methyl-3-phenethyl-piperazin-1-yl)-4H-3-thia-1,4,9-triaza-benzo[f]azulene dihydrochloride hemihydrate]
Ki [1]: 10 to 100 nM

CC(C)n1nc2c(n1)C(N1CCN[C@@H](CCc3ccccc3)C1)=Nc1ccccc1N2 [Example 594, (S)-2-Isopropyl-10-(3-phenethyl-piperazin-1-yl)-2,4-dihydro-1,2,3,4.9-pentaaza-benzo[f]azulene dihydrochloride hemihydrate]
Ki [1]: < 10 nM

CC(C)n1nc2c(n1)C(N1CCN(C)[C@@H](CCc3ccccc3)C1)=Nc1ccccc1N2 [Example 595, (S)-2-Isopropyl-10-(4-methyl-3-phenethyl-piperazin-1-yl)-2,4-dihydro-1,2,3,4,9-pentaaza-benzo[f]azulene dihydrochloride hemihydrate]
Ki [1]: 10 to 100 nM
